The source of these data is patent publication US7947728B1, “Indole and indazole analogs as glycogen synthase activators” (Hoffmann-La Roche Inc., priority 2009, dated 2011).

The subject of this experiment is glycogen synthase. Nature of the experiment: Glycogen Synthase (GS) Assay. The experiment is classed as biochemical. The note with it: for EC50: compound concentration needed to give 50% maximum activation; for GS SC200: compound concentration needed to stimulate 200% of the enzyme activity. The protocol: The following tests were carried out in order to determine the activity of the compounds of formula (I).
Twelve μL per well of substrate solution containing glycogen (4.32 mg/′ml), 2.67 mM UDP-glucose, 21.6 mM phospho(enol)pyruvate and 2.7 mM NADH in 30 mM glycylglycine, pH 7.3 buffer was added into a polystyrene 384-well assay plate (BD Biosciences).
Compound solutions (8 μL/well) at various concentrations (0-300 μM) were added to the assay plate (columns 5-24). Compound solution contains 30 mM glycylglycine, pH 7.3, 40 mM KCl, 20 mM MgCl2, 9.2% DMSO, with (columns 15-24) or without (columns 5-14) 20 mM glucose 6-phosphate.
Enzyme solution (12 μL/well) containing glycogen synthase (16.88 μg/ml), pyruvate kinase (0.27 mg/ml), lactate dehydrogenase (0.27 mg/ml) in 50 mM Tris-HCl, pH 8.0, 27 mM DTT and bovine serum albumin (BSA, 0.2 mg/ml) was added to the assay plate (columns 3-24). As a blank control, enzyme solution without glycogen synthase was added into the top half wells of columns 1-2. To the bottom half wells of columns 1-2 were added a known activator, glucose 6-phosphate (at final concentration 5 mM) in addition to the enzyme solution. The reaction mixture was incubated at room temperature. The assay plate was then read for absorbance at 340 nm on an Envision reader every 3 minutes up to a total of 15 minutes.
The enzyme activity (with or without compound) was calculated by the reaction rate and represented by the optical density change (δOD) per minute. Percent stimulation of glycogen synthase activity by a compound at various concentrations was calculated by the following formula: % stimulation=100*Rs/Rt,
wherein Rs is the reaction rate of the enzyme in the presence of compound and Rt is the reaction rate of the enzyme in the absence of compound.
SC200 is defined as the compound concentration that is needed to stimulate 200% of the enzyme activity. EC50 is defined as the compound concentration that is needed to give 50% maximum activation.

Structures are written as SMILES.

Regarding `COc1cc(F)c(F)cc1-c1ccc(OCc2ccc3ccn(C(C)CC(=O)O)c3c2)cc1` (stereo not shown) [Example 9, 3-[6-(4′,5′-Difluoro-2′-methoxy-biphenyl-4-yloxymethyl)-indol-1-yl]-butyric Acid], it took 2.01 µM to reach a half-maximal effect (EC50) and the “GS SC200” value is 0.41 µM.
The matching figures for `COc1cc(F)c(F)cc1-c1ccc(OCc2ccc3[nH]nc(N)c3c2)cc1` [Example 16, 5-(4′,5′-Difluoro-2′-methoxy-biphenyl-4-yloxymethyl)-1H-indazol-3-ylamine]: 2.79 µM and 0.6 µM.
For `COc1cc(F)c(F)cc1-c1ccc(OCc2cccc3c2ccn3C(C)CC(=O)O)cc1` (stereo not shown) [Example 15, 3-[4-(4′,5′-Difluoro-2′-methoxy-biphenyl-4-yloxymethyl)-indol-1-yl]-butyric acid] the same measures were 6.67 µM and 2.29 µM.
The matching figures for `COc1cc(F)c(F)cc1-c1ccc(OCc2cccc3[nH]ncc23)cc1` [Example 1, 4-(4′,5′-Difluoro-2′-methoxy-biphenyl-4-yloxymethyl)-1H-indazole]: 6.56 µM and 4.57 µM.
As to `COc1cc(F)c(F)cc1-c1ccc(OCc2ccc3cn[nH]c3c2)cc1` [Example 3, 6-(4′,5′-Difluoro-2′-methoxy-biphenyl-4-yloxymethyl)-1H-indazole], the EC50 amounted to 6 µM and the “GS SC200” value is 3.92 µM.
The matching figures for `COc1cc(F)c(F)cc1-c1ccc(OCc2cccc3c2cnn3CCC(=O)O)cc1` [Example 2, 3-[4-(4′,5′-Difluoro-2′-methoxy-biphenyl-4-yloxymethyl)-indazol-1-yl]-propionic acid]: 26 µM and 5.52 µM.
The matching figures for `COc1cc(F)c(F)cc1-c1ccc(OCc2cccc3c2ccn3C(=O)CC(C)(C)C(=O)O)cc1` [Example 12, 4-[4-(4′,5′-Difluoro-2′-methoxy-biphenyl-4-yloxymethyl)-indol-1-yl]-2,2-dimethyl-4-oxo-butyric acid]: 3.04 µM and 1.19 µM.
The matching figures for `COc1cc(F)c(F)cc1-c1ccc(OCc2ccc3ccn(CC(=O)O)c3c2)cc1` [Example 8, [6-(4′,5′-Difluoro-2′-methoxy-biphenyl-4-yloxymethyl)-indol-1-yl]-Acetic Acid]: 5.16 µM and 2 µM.
In the case of `COc1cc(F)c(F)cc1-c1ccc(OCc2ccc3cnn(CC(=O)O)c3c2)cc1` [Example 4, [6-(4′,5′-Difluoro-2′-methoxy-biphenyl-4-yloxymethyl)-indazol-1-yl]-acetic acid], the EC50 was 7 µM and the “GS SC200” value was 2.56 µM.
For `COc1cc(F)c(F)cc1-c1ccc(OCc2cccc3c2ccn3CCC(=O)O)cc1` [Example 14, 3-[4-(4′,5′-Difluoro-2′-methoxy-biphenyl-4-yloxymethyl)-indol-1-yl]-propionic acid] the same measures were 5.49 µM and 1.46 µM.
The matching figures for `COc1cc(F)c(F)cc1-c1ccc(OCc2ccc3cnn(CCC(=O)O)c3c2)cc1` [Example 5, 3-[6-(4′,5′-Difluoro-2′-methoxy-biphenyl-4-yloxymethyl)-indazol-1-yl]-propionic acid]: 1.43 µM and 0.28 µM.
For `COc1cc(F)c(F)cc1-c1ccc(OCc2cccc3c2ccn3CC(=O)O)cc1` [Example 13, [4-(4′,5′-Difluoro-2′-methoxy-biphenyl-4-yloxymethyl)-indol-1-yl]-acetic acid] the same measures were 3.12 µM and 0.43 µM.
On to `COc1cc(F)c(F)cc1-c1ccc(OCc2ccc3ccn(CCC(=O)O)c3c2)cc1` [Example 7, 3-[6-(4′,5′-Difluoro-2′-methoxy-biphenyl-4-yloxymethyl)-indol-1-yl]-propionic Acid], for which the EC50 was found to be 3 µM and the “GS SC200” value was 0.6 µM.
On to `COc1cc(F)c(F)cc1-c1ccc(OCc2ccc3cc[nH]c3c2)cc1` [Example 6, 6-(4′,5′-difluoro-2′-methoxy-biphenyl-4-yloxymethyl)-1H-indole], for which the response was half-maximal at 5.37 µM (EC50) and the “GS SC200” value was found to be 5.3 µM.
For `COc1cc(F)c(F)cc1-c1ccc(OCc2cccc3c2ccn3C(=O)CCC(=O)O)cc1` [Example 11, 4-[4-(4′,5′-Difluoro-2′-methoxy-biphenyl-4-yloxymethyl)-indol-1-yl]-4-oxo-butyric acid] the same measures were 2.46 µM and 0.44 µM.
Turning to `COc1cc(F)c(F)cc1-c1ccc(OCc2cccc3[nH]ccc23)cc1` [Example 10, 4-(4′,5′-Difluoro-2′-methoxy-biphenyl-4-yloxymethyl)-1H-indole], the EC50 was found to be 3.88 µM and the “GS SC200” value turned out to be 2.86 µM.
On to `Cn1nc(N)c2cc(COc3ccc(-c4cc(F)c(F)cc4F)cc3)ccc21` [Example 17, Methyl-5-(2′,4′,5′-trifluoro-biphenyl-4-yloxymethyl)-1H-indazol-3-ylamine], for which the EC50 stood at 18.5 µM and the “GS SC200” value was 3.9 µM.

The EC50 is the concentration at which the effect is half-maximal.
